The values below come from ChEMBL document CHEMBL1125092, “Nonneurotoxic tetralin and indan analogues of 3,4-(methylenedioxy)amphetamine (MDA)” (J Med Chem, 1990).

Holding throughout (type): functional
The test system of assay [1] is Rattus norvegicus. The experiment in a line: Hallucinogenic property was determined in groups of LSD trained rats and percentage of animals disrupted was reported at a dose 4.10 (umol/kg),(number of animals = 10).
Assay [2] concerns Rattus norvegicus. Nature of the assay: Percentage of animals disrupted in groups of MDMA trained rats at a dose of 4.10 (umol/kg),(number of animals = 8).
Assay [3] deals with Rattus norvegicus. The experiment in a line: Percentage of animals disrupted in groups of MDMA trained rats at a dose of 8.21 (umol/kg),(number of animals = 9).
Assay [4] relates to Rattus norvegicus. The experiment in a line: Percentage of animals disrupted was determined in groups of LSD trained rat at a dose of 18.46 (umol/kg),(no. of animals=9).
Assay [5] deals with Rattus norvegicus. Nature of the assay: Percentage of animals disrupted was determined in groups of LSD trained rat at a dose of 6.15 (uM/kg), (no.of animals = 11).
The test system of assay [6] is Rattus norvegicus. Nature of the assay: Percentage of animals disrupted was determined in groups of LSD trained rat at a dose of 8.21 (umol/kg),(no. of animals = 8).
The test system of assay [7] is Rattus norvegicus. Nature of the assay: Percentage of animals disrupted in groups of MDMA trained rats at a dose of 12.31 (umol/kg),(number of animals = 8).
Assay [8] has as its system Rattus norvegicus. Nature of the assay: Percentage of animals disrupted in groups of MDMA trained rats at a dose of 16.41 (umol/kg),(number of animals = 11).
For assay [9], the system named is Rattus norvegicus. Nature of the assay: Percentage of animals disrupted in groups of MDMA trained rats at a dose of 17.44 (umol/kg),(number of animals = 11).
Assay [10] deals with Rattus norvegicus. Nature of the assay: Percentage of animals disrupted in groups of MDMA trained rats at a dose of 20.51 (umol/kg),(number of animals = 7).
For assay [11], the system named is Rattus norvegicus. Nature of the assay: Tested for stimulus generation in rats trained to discriminate LSD from saline at a dose 16.41(.umol/kg),(number of animals = 11).
Assay [12] deals with Rattus norvegicus. The experiment in a line: Tested for stimulus generation in rats trained to discriminate LSD from saline at 4.10 (umol/kg),(number of animals = 10).
For assay [13], the system named is Rattus norvegicus. The experiment in a line: Tested for stimulus generation in rats trained to discriminate LSD from saline at a 18.46 (umol/kg),(number of animals = 9).
Assay [14] has as its system Rattus norvegicus. Nature of the assay: Tested for stimulus generation in rats trained to discriminate +/-MDMA from saline at 8.21 (umol/kg),(number of animals = 9).
In assay [15] the test system is Rattus norvegicus. Nature of the assay: Tested for stimulus generation in rats trained to discriminate LSD from saline at a dose 6.15 (umol/kg),(number of animals = 11).
Assay [16] concerns Rattus norvegicus. The experiment in a line: Tested for stimulus generation in rats trained to discriminate LSD from saline at a dose 8.21 (umol/kg),(number of animals = 8).
For assay [17], the system named is Rattus norvegicus. The experiment in a line: Tested for stimulus generation in rats trained to discriminate +/-MDMA from saline at 12.31 (umol/kg),(number of animals = 8).
Assay [18] deals with Rattus norvegicus. Nature of the assay: Tested for stimulus generation in rats trained to discriminate +/-MDMA from saline at 16.41(.umol/kg),(number of animals = 11).
In assay [19] the test system is Rattus norvegicus. The experiment in a line: Tested for stimulus generation in rats trained to discriminate +/-MDMA from saline at 4.10 (umol/kg),(number of animals = 8).
Assay [20] has as its system Rattus norvegicus. The experiment in a line: Tested for stimulus generation in rats trained to discriminate +/-MDMA from saline at 17.44i (umol/kg),(number of animals = 11).
Assay [21] has as its system Rattus norvegicus. The experiment in a line: Percentage of animals disrupted was determined in groups of LSD trained rat at a dose of 16.41 (umol/kg),(no. of animals=11).
Assay [22] concerns Rattus norvegicus. The experiment in a line: Hallucinogenic property was determined in groups of LSD trained rats and percentage of animals disrupted was reported at a dose 1.17 (umol/kg),(number of animals = 10).
In assay [23] the test system is Rattus norvegicus. The experiment in a line: Hallucinogenic property was determined in groups of LSD trained rats and percentage of animals disrupted was reported at a dose 18.72 (umol/kg),(number of animals = 5).
In assay [24] the test system is Rattus norvegicus. Nature of the assay: Hallucinogenic property was determined in groups of LSD trained rats and percentage of animals disrupted was reported at a dose 9.36 (umol/kg),(number of animals = 10).
Assay [25] has as its system Rattus norvegicus. The experiment in a line: Hallucinogenic property was determined in groups of MDMA trained rats and percentage of animals disrupted was reported at 18.72 (umol/kg),(number of animals = 5).
The test system of assay [26] is Rattus norvegicus. The experiment in a line: Hallucinogenic property was determined in groups of MDMA trained rats and percentage of animals disrupted was reported at 28.08 (umol/kg),(number of animals = 4).
In assay [27] the test system is Rattus norvegicus. The experiment in a line: Hallucinogenic property was determined in groups of MDMA trained rats and percentage of animals disrupted was reported at a dose 1.17 (umol/kg), (number of animals =6).
Assay [28] has as its system Rattus norvegicus. Nature of the assay: Hallucinogenic property was determined in groups of MDMA trained rats and percentage of animals disrupted was reported at a dose 2.34 (umol/kg), (number of animals = 8).
Assay [29] has as its system Rattus norvegicus. Nature of the assay: Hallucinogenic property was determined in groups of MDMA trained rats and percentage of animals disrupted was reported at a dose 4.68 (umol/kg), (number of animals = 10).
The subject of assay [30] is Rattus norvegicus. Nature of the assay: Hallucinogenic property was determined in groups of MDMA trained rats and percentage of animals disrupted was reported at a dose 9.36 (umol/kg), (number of animals = 9).
In assay [31] the test system is Rattus norvegicus. Nature of the assay: Hallucinogenic property was determined in groups of LSD trained rats and percentage of animals disrupted was reported at a dose 4.68 (umol/kg),(number of animals = 10).
Assay [32] concerns Rattus norvegicus. The experiment in a line: Hallucinogenic property was determined in groups of LSD trained rats and percentage of animals disrupted was reported at 2.34 (umol/kg),(number of animals = 13).
Assay [33] concerns Rattus norvegicus. The experiment in a line: Tested for stimulus generation in rats trained to discriminate LSD from saline at a dose 1.17 (umol/kg),(number of animals = 10).
The test system of assay [34] is Rattus norvegicus. The experiment in a line: Tested for stimulus generation in rats trained to discriminate LSD from saline at a dose 2.34 (umol/kg),(number of animals = 13).
For assay [35], the system named is Rattus norvegicus. Nature of the assay: Tested for stimulus generation in rats trained to discriminate +/-MDMA from saline at 9.36 (umol/kg), (number of animals = 9).
Assay [36] has as its system Rattus norvegicus. Nature of the assay: Tested for stimulus generation in rats trained to discriminate LSD from saline at a dose 4.68 (umol/kg),(number of animals = 10).
The test system of assay [37] is Rattus norvegicus. Nature of the assay: Tested for stimulus generation in rats trained to discriminate +/-MDMA from saline at 1.17 (umol/kg), (number of animals = 6).
Assay [38] concerns Rattus norvegicus. The experiment in a line: Tested for stimulus generation in rats trained to discriminate +/-MDMA from saline at 4.68 (umol/kg), (number of animals = 10).
Assay [39] relates to Rattus norvegicus. Nature of the assay: Tested for disruption in more than 50% rats trained to discriminate LSD from saline at a dose 18.72 (umol/kg) (no. of animals =5).
The test system of assay [40] is Rattus norvegicus. The experiment in a line: Tested for stimulus generation in rats trained to discriminate LSD from saline at a dose 9.36 (umol/kg), (number of animals = 10).
For assay [41], the system named is Rattus norvegicus. Nature of the assay: Tested for stimulus generation in rats trained to discriminate +/-MDMA from saline at 18.72 (umol/kg),(number of animals = 5).
In assay [42] the test system is Rattus norvegicus. Nature of the assay: Tested for stimulus generation in rats trained to discriminate +/-MDMA from saline at 2.34 (umol/kg), (number of animals = 8).

On to `COc1cc(C)c(OC)c2c1CC(N)C2` (configuration not stated), for which the D came to 0% in the assay on Rattus norvegicus [1]; 0% with Rattus norvegicus [2]; 11% in the assay on Rattus norvegicus [3]; 0% in the assay with Rattus norvegicus [4]; 27% with Rattus norvegicus [5]; 0% in the assay on Rattus norvegicus [6]. For the same molecule, the D in the assay with Rattus norvegicus [7] is recorded as 0%; with Rattus norvegicus [8] it was 27%; in the assay on Rattus norvegicus [9] it was 27%; in the assay with Rattus norvegicus [10], 71%; with Rattus norvegicus [21] it was 27%. Further, the SDL in the assay with Rattus norvegicus [11] came out at 63%; with Rattus norvegicus [12] it was 20%; with Rattus norvegicus [13], 89%; in the assay on Rattus norvegicus [14], 38%; in the assay with Rattus norvegicus [15], 38%; with Rattus norvegicus [16], 38%. Besides, the SDL in the assay with Rattus norvegicus [17] came to 25%; with Rattus norvegicus [18] it was 75%; with Rattus norvegicus [19], 13%; in the assay with Rattus norvegicus [20], 50%.
Consider `NC1Cc2ccc3c(c2C1)OCO3` (configuration not stated), for which the D in the assay with Rattus norvegicus [22] is given as 20%; in the assay on Rattus norvegicus [23], 100%; in the assay on Rattus norvegicus [24], 20%; in the assay with Rattus norvegicus [25], 0%; with Rattus norvegicus [26], 50%; in the assay with Rattus norvegicus [27], 0%. In addition, the D is recorded as 13% in the assay with Rattus norvegicus [28]; 20% with Rattus norvegicus [29]; 11% with Rattus norvegicus [30]; 20% in the assay on Rattus norvegicus [31]; 44% in the assay on Rattus norvegicus [32]. The SDL in the assay on Rattus norvegicus [33] came out at 38%; in the assay on Rattus norvegicus [34], 25%; with Rattus norvegicus [35], 25%; in the assay with Rattus norvegicus [36] it was 13%; in the assay with Rattus norvegicus [37], 0%; with Rattus norvegicus [38] it was 13%. Moreover, the SDL with Rattus norvegicus [39] amounted to 0%; in the assay with Rattus norvegicus [40], 25%; with Rattus norvegicus [41], 0%; with Rattus norvegicus [42], 29%.
